Assay results from ChEMBL document CHEMBL1201862, “PubChem BioAssay data set” (2004).
One block for each molecule: values may come before it. Activity calls are given as the source filed them.

Tests used:
[1] = molecular target: T1, Cytochrome P450 2C19 (Homo sapiens, UniProt P33261); assay: Cytochrome panel assay with activity outcomes. Panel member name: p450-cyp2c19 Compounds with AC50 equal or less than 10 uM are considered active; assay type: functional; conditions: read-out: AC50
[2] = molecular target: T1, Cytochrome P450 2C19; assay: qHTS Assay for Inhibitors and Substrates of Cytochrome P450 2C19. [Related pubchem assays: 410 ]; assay type: ADME; conditions: read-out: Potency
[3] = molecular target: T2, Estrogen receptor beta (Homo sapiens, UniProt Q92731);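 further: recombinant ER-beta bound to coactivator SRC1 peptide in presence of estradiol agonist; inhibitors block coactivator peptide binding and lower the FRET signal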
T2 sequence (Q92731 whole entry): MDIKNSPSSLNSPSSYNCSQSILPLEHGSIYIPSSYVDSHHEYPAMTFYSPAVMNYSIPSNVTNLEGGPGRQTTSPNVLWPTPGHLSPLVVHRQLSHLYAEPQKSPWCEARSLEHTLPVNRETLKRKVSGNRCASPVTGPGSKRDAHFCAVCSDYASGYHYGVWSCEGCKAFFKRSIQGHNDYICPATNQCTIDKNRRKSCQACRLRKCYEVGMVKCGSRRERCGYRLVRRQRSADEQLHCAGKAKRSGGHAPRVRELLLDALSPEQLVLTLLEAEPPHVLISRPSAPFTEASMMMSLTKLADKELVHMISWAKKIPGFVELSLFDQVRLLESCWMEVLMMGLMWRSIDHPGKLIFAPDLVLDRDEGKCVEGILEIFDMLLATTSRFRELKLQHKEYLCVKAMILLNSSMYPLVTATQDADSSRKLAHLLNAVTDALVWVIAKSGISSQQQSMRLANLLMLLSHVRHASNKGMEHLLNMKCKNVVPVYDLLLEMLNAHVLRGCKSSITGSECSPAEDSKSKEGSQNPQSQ

[4] = molecular target: T2, Estrogen receptor beta; assay: ERβ–SRC-3 coactivator interaction inhibitors, confirmation, orthogonal assay, biochemical, ELISA, streptavidin-HRP readout (AID 1060)
[5] = molecular target: Cytochrome P450 2C9 (Homo sapiens, UniProt P11712); conditions: Potency
Chain of Cytochrome P450 2C9 (P11712 whole entry): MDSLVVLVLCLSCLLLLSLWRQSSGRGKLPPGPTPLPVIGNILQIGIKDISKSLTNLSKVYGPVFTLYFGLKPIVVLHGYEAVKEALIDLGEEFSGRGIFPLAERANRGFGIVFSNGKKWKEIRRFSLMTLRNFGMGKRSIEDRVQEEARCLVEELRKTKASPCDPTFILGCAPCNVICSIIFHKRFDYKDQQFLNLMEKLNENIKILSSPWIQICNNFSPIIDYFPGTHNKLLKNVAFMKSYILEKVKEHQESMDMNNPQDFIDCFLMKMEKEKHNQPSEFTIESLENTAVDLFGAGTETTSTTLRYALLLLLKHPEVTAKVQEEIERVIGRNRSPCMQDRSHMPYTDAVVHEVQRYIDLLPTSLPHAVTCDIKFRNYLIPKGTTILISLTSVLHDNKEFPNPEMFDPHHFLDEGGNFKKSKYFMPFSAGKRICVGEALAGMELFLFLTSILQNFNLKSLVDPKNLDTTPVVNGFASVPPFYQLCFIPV

[6] = molecular target: Cytochrome P450 2D6 (Homo sapiens, UniProt P10635); assay: qHTS Assay for Inhibitors and Substrates of Cytochrome P450 2D6. [Related pubchem assays: 410 ]; assay type: ADME; conditions: read-out: Potency
Chain of Cytochrome P450 2D6 (P10635 whole entry): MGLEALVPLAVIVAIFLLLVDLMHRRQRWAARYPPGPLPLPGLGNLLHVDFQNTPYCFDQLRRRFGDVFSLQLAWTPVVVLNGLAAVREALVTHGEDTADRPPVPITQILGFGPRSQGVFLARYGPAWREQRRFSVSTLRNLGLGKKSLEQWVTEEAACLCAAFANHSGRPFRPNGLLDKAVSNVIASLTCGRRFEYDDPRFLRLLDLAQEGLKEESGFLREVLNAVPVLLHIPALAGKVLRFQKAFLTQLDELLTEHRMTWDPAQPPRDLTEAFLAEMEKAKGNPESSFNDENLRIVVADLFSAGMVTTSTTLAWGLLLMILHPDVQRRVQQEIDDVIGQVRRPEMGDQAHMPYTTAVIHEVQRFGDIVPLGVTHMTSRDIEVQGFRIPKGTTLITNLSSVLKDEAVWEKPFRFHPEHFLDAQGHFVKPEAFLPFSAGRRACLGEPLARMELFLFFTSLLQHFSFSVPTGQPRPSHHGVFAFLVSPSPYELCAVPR

[7] = P. falciparum ATP4 D1247Y mutant growth inhibitors, dose response, NITD609-resistant line, SYBR Green, dry powder (AID 1159571); assay type: functional, cell-based;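 further: parasites synchronized at ring stage by sorbitol before testing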
[8] = Plasmodium falciparum Dd2 Sybr green parasite growth Measured in Cell-Based and Microorganism Combination System Using Plate Reader - 2153-01_Inhibitor_Dose_DryPowder_Activity_Set3.; assay type: functional
[9] = P. falciparum 3D7-ScDHODH growth inhibitors, dose response, SYBR Green, dry powder samples (AID 1159570); assay type: functional, cell-based;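 further: parasite growth measured after 72 hours of compound exposure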
[10] = P. falciparum Dd2 growth inhibitors, dose response, SYBR Green, dry powder samples (AID 1159566); assay type: functional, cell-based;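 further: potency for growth inhibition with lower SYBR green DNA signal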
[11] = HepG2 cell cytotoxicity, dose response, cytotoxicity control, plate reader, dry powder samples (AID 1159569); assay type: functional, cell-based;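 further: inhibitor potency with signal falling toward the positive control level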
[12] = P. falciparum Dd2 growth inhibitors, dose response, SYBR Green, cherry-picked samples (AID 1159567); assay type: functional, cell-based

T1 sequence (P33261 whole entry): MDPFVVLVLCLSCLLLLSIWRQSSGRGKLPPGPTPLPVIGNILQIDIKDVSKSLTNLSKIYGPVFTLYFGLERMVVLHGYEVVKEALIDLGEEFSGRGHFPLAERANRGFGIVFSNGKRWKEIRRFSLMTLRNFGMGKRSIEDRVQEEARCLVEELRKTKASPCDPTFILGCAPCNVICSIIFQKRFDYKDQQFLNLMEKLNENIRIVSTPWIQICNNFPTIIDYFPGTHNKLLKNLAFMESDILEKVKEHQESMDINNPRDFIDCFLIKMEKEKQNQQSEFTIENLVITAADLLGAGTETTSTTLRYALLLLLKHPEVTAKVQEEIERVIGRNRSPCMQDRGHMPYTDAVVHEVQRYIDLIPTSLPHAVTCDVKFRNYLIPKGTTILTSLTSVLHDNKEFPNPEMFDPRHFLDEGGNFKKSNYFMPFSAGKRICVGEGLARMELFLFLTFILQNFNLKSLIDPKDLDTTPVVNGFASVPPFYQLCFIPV

- AC50 [1]: 10 µM (inconclusive)
- AC50 [2]: 1 µM (inconclusive)
Compound: COc1cc2c(cc1C(F)(F)F)N(C(=O)Nc1cc(F)cc(-c3cccnc3)c1)CC2

- IC50 [3]: 21.6 µM (active)
- IC50 [4]: > 109 µM (not active)
Compound: c1ccc(-c2nnc3sc(Cc4cccs4)nn23)cc1

- AC50 [5]: 1 µM (inconclusive)
- AC50 [6]: 3.16 µM (inconclusive)
- AC50 [2]: 6.31 µM (inconclusive)
Compound: COC(=O)NC(c1ccco1)C(C(C)=O)C(=O)OC (stereo not drawn)

Compound: CCCNC(=O)N1[C@H](C#N)[C@H](c2ccc(-c3cccnc3)cc2)[C@H]1CO
- AC50 [7]: 1.16 µM (active)
- AC50 [8]: 927 nM (active)
- AC50 [9]: > 39 µM (inactive)
- AC50 [10]: 822 nM (active)
- AC50 [11]: > 100 µM (inactive)
- AC50 [12]: 1.49 µM (active)
